Data from US9596874B2, “Bitter taste masking compositions and method of masking bitter taste” (Givaudan S.A., priority 2010, dated 2017).

Experiment: Panel tasting of KCl/NaCl solutions in water
Conditions: for masking of the off-notes of KCl: 5000 ppm sugar alcohol in water with 1600 ppm KCl and 800 ppm NaCl, panel of professional tasters
Description: Three solutions were prepared: • A 1600 ppm of KCl and 800 ppm of NaCl in water • B 1600 ppm of KCl and 800 ppm of NaCl in water containing 5000 ppm of mannitol • C 1600 ppm of KCl and 800 ppm of NaCl in water containing 5000 ppm of dulcitol The solutions were compared by a panel of professional tasters.

Structure (SMILES)	masking compared with mannitol (5000 ppm dulcitol vs 5000 ppm mannitol, 1600 ppm KCl and 800 ppm NaCl in water, panel)	taste perception (5000 ppm dulcitol, 1600 ppm KCl and 800 ppm NaCl in water, panel)	masking of the off-notes of KCl
OC[C@@H](O)[C@H](O)[C@H](O)[C@@H](O)CO [dulcitol, Galactitol (=dulcitol)]	noticeably better in masking	more positive, described as ‘rounded-off’, perception	mask the off-notes KCl well
OC[C@@H](O)[C@@H](O)[C@H](O)[C@H](O)CO [mannitol, Mannitol]			mask the off-notes KCl well
